Data reported in US4346087A, “Antibacterial surface active agent containing azaalkenelactam” (priority 1979, dated 1982).
In brackets after ≈: the same amount, converted by molar mass. Read-outs that look alike come from different tables or passages of the source.

What was measured:
Assay type in all cases: cell-based
Escherichia coli NIHJ = assay: MIC against Escherichia coli NIHJ
Description: (§1) Below are described the antibacterial activities of the compounds in the compositions according to this invention.
(§2) The testing method complied with the standard method of Japan Sociaty of Chemotherapy.

[1] = tested on: Staphylococcus aureus FDA 209P; assay: MIC against Staphylococcus aureus FDA 209P
Description: as §1, §2

[2] = tested on: Desulfovibrio desulfuricans IFO 13699; assay: MIC against Desulfovibrio desulfuricans
Description: as §1, §2

[3] = Table 2, derivatives having a carboxylate radical, heart infusion agar, 37° C., 24 hours
[4] = Staphylococcus aureus, FDA209P, 24 h
[5] = Desulfovibrio desulfuricans, IFO13699, 24 h
[6] = Escherichia coli, Table 1, azaalkenelactams, heart infusion agar, 37° C., 24 hours, read-out: MIC
[7] = Escherichia coli, Table 2, derivatives having a carboxylate radical, heart infusion agar, 37° C., 24 hours, read-out: MIC
[8] = Desulfovibrio desulfuricans, IFO13699, Table 1, azaalkenelactams, heart infusion agar, 37° C., 24 hours, read-out: MIC

Compound | MIC (Escherichia coli NIHJ; Escherichia coli, 24 h) [µg/mL] | MIC [1, 4] [µg/mL] | MIC [2, 5] [µg/mL] | further results
1-(2-hydroxy)dodecyl-3-methyl-1-aza-5-azoniacyclooct-4-en-2-one-5-acetate |  |  |  | MIC (Escherichia coli NIHJ; [3]): 1600 µg/mL; MIC [1]: 100 µg/mL; MIC [2]: 50 µg/mL
1-nonylphenylpoly(2 moles)oxyethyleneoxyethyl-3,3-dimethyl-1-aza-5-azoniacyclooct-4-en-2-one-5-acetate |  |  |  | MIC (Escherichia coli NIHJ): 400 µg/mL; MIC [1]: 100 µg/mL; MIC [2]: 50 µg/mL
CCCCCCCCOCCCN1CCN=CC(C)(C)C1=O [Example 63, 4-octoxypropyl-6,6-dimethyl-3-hydro-2H-1,4-diazepin-5-one] | 400 (≈ 1290 µM) | 100 (≈ 322 µM) | 50 (≈ 161 µM) | 
CCCCCCCCCCCCNCCNCCNCCCN1CCC[N+](CC(=O)[O-])=C(C)CC1=O [1-dodecylaminoethylaminoethylaminopropyl-4-methyl-1-aza-5-azoniacyclooct-4-en-2-one-5-acetate] | 100 (≈ 196 µM) | 12.5 (≈ 24.5 µM) | 25 (≈ 49 µM) | 
1-coconutalkyl-4-methyl-1-aza-5-azoniacyclooct-4-en-2-one-5-acetate |  |  |  | MIC (Escherichia coli NIHJ; [3]): 3200 µg/mL; MIC [1]: 200 µg/mL; MIC [2]: 12.5 µg/mL
CCCCCCCCCCCCNCCCN1CCC[N+](CC(=O)[O-])=C(C)CC1=O [1-dodecylaminopropyl-4-methyl-1-aza-5-azoniacyclooct-4-en-2-one-5-acetate] | 100 (≈ 236 µM) | 12.5 (≈ 29.5 µM) | 50 (≈ 118 µM) | 
CCCCCCCCCCCCCCCCCCCCCCNCCN1CCN=C(C)CC1=O [Example 22, 4-docosylaminoethyl-7-methyl-3,6-dihydro-2H-1,4-diazepin-5-one] |  | 25 (≈ 52.3 µM) | 12.5 (≈ 26.2 µM) | MIC (Escherichia coli NIHJ; [6]): 800 µg/mL (≈ 1670 µM)
CCCCCCCCCCCCCCC(O)CNCCN1CC[N+](CC(=O)[O-])=C(C)CC1=O (stereo not drawn) [4-(2-hydroxyhexadecyl)aminoethyl-7-methyl-1-azonia-4-azacyclohept-7-en-5-one-1-acetate] | 50 (≈ 107 µM) | 25 (≈ 53.5 µM) |  | MIC ([2]; Desulfovibrio desulfuricans, IFO13699, Table 2, derivatives having a carboxylate radical, heart infusion agar, 37° C., 24 hours, read-out: MIC): 3.12 µg/mL (≈ 6.67 µM)
CCCCCCCCCCCCCCCCCCCCCC(=O)OCCN1CC[N+](CC(=O)[O-])=CCCC1=O [4-behenoyloxyethyl-4-aza-1-azoniacyclooct-8-en-5-one-1-acetate] | 200 (≈ 363 µM) | 100 (≈ 182 µM) | 12.5 (≈ 22.7 µM) | 
CCCCCCCCCCCCOCC(O)CN1CCC[N+](C(C)C(=O)[O-])=C(C)CC1=O (stereo not drawn) [1-docoxy(2-hydroxy)propyl-4-methyl-1-aza-5-azoniacyclooct-4-en-2-one-5-propionate] |  | 25 (≈ 55 µM) | 12.5 (≈ 27.5 µM) | MIC (Escherichia coli NIHJ; [7]): 800 µg/mL (≈ 1760 µM)
CCCCCCCCCCCCNCCCN1CCCN=C(C)CC1=O [Example 36, 1-dodecylaminopropyl-4-methyl-3,6,7,8-tetrahydro-1,5-diazocin-2-one] | 50 (≈ 137 µM) | 12.5 (≈ 34.2 µM) | 25 (≈ 68.4 µM) | 
4-methylbenzylpoly(2 moles)oxypropyleneoxypropyl-6-methyl-2,3,6,7-tetrahydro-1,4-diazocin-5-one [Example 67] |  |  |  | MIC (Escherichia coli NIHJ): 400 µg/mL; MIC [1]: 200 µg/mL; MIC [2]: 50 µg/mL
CCCCCCCCCCCC(=O)OCCN1CCC[N+](CC(=O)[O-])=C(C)CC1=O [1-lauroyloxyethyl-4-methyl-1-aza-5-azoniacyclooct-4-en-2-one-5-acetate] |  | 400 (≈ 942 µM) | 25 (≈ 58.9 µM) | MIC (Escherichia coli NIHJ; [7]): 3200 µg/mL (≈ 7540 µM)
CCCCCCCCCCCCN1CC[N+](CC(=O)[O-])=C(C)CC1=O [4-dodecyl-7-methyl-1-azonia-4-azacyclohept-7-en-5-on-1-acetate] |  | 50 (≈ 142 µM) | 12.5 (≈ 35.5 µM) | MIC (Escherichia coli NIHJ; [7]): 3200 µg/mL (≈ 9080 µM)
CCCCCCCC/C=C\CCCCCCCC(=O)NCCN1CCN=C(C)CC1=O [Example 10, 4-oleamidoethyl-7-methyl-3,6-dihydro-2H-1,4-diazepin-5-one] |  | 50 (≈ 115 µM) | 6.25 (≈ 14.4 µM) | MIC (Escherichia coli NIHJ; [6]): 1600 µg/mL (≈ 3690 µM)
CCCCCCCCCc1ccc(OCCOCCN2CCC[N+](CC(=O)[O-])=C(C)CC2=O)cc1 [1-nonylphenylpoly(2 moles)oxyethyleneoxyethyl-4-methyl-1-aza-5-azoniacyclooct-4-en-2-one-5-acetate] | 200 (≈ 409 µM) | 12.5 (≈ 25.6 µM) | 25 (≈ 51.2 µM) | 
CCCCCCCCc1ccc(OCCOC(C)COC(C)CN2CCN=C(C)CC2=O)cc1 (stereo not drawn) [Example 19] | 400 (≈ 843 µM) | 50 (≈ 105 µM) | 25 (≈ 52.7 µM) | 

Compound | MIC (Escherichia coli NIHJ; Escherichia coli, 24 h) [µg/mL] | MIC [1, 4] [µg/mL] | MIC [2, 5] [µg/mL] | further results
CCCCCCCCCCCCCCCCCCCCCCNCCN1CC[N+](CC(=O)[O-])=C(C)CC1=O [4-docosylaminoethyl-7-methyl-1-azonia-4-azacyclohept-7-en-5-one-1-acetate] |  | 12.5 (≈ 23.3 µM) | 12.5 (≈ 23.3 µM) | MIC (Escherichia coli NIHJ; [7]): 3200 µg/mL (≈ 5970 µM)
CCCCCCCCCCCCN1CCCN=C(C)CC1=O [Example 3, 1-dodecyl-4-methyl-3,6,7,8-tetrahydro-1,5-diazocin-2-one] |  | 50 (≈ 162 µM) | 6.25 (≈ 20.3 µM) | MIC (Escherichia coli NIHJ; [6]): 1600 µg/mL (≈ 5190 µM)
CCCCCCCCCCCCCCNCCN1CC[N+](C(C)C(=O)[O-])=CC(C)(C)C1=O (stereo not drawn) [4-tetradecylaminoethyl-6,6-dimethyl-1-azonia-4-azacyclohept-7-en-5-one-1-propionate] | 100 (≈ 221 µM) | 6.25 (≈ 13.8 µM) | 6.25 (≈ 13.8 µM) | 
CCCCCCC(O)CC=CCCCCCCCC(=O)OC(C)CN1CCCN=C(C)CC1=O (stereo not drawn) [Example 21] |  | 50 (≈ 104 µM) | 25 (≈ 52.2 µM) | MIC (Escherichia coli NIHJ; [6]): 800 µg/mL (≈ 1670 µM)
CCCCCCC(O)CC=CCCCCCCCC(=O)OC(C)CN1CCC[N+](CC(=O)[O-])=C(C)CC1=O (stereo not drawn) |  | 50 (≈ 93.2 µM) | 25 (≈ 46.6 µM) | MIC (Escherichia coli NIHJ; [7]): 1600 µg/mL (≈ 2980 µM)
CCCCCCCCCCCC(=O)OCCN1CCN=CC(C)C1=O (stereo not drawn) [Example 47, 4-lauroyloxyethyl-6-methyl-3,6-dihydro-2H-1,4-diazepin-5-one] |  |  |  | MIC (Escherichia coli NIHJ; [6]): 200 µg/mL (≈ 567 µM); MIC ([1]; Staphylococcus aureus, FDA209P, Table 1, azaalkenelactams, heart infusion agar, 37° C., 24 hours, read-out: MIC): 50 µg/mL (≈ 142 µM); MIC [2, 8]: 50 µg/mL (≈ 142 µM)
4-behenoyloxypropyl-6-methyl-2,3,6,7-tetrahydro-1,4-diazocin-5-one [Example 68] |  |  |  | MIC (Escherichia coli NIHJ): 200 µg/mL; MIC [1]: 100 µg/mL; MIC [2]: 25 µg/mL
CCCCCCCCCCCCC(O)CN1CCCN=C(C)CC1=O (stereo not drawn) [Example 27, 1-(2-hydroxy)tetradecyl-4-methyl-3,6,7,8-tetrahydro-1,5-diazocin-2-one] | 25 (≈ 70.9 µM) | 12.5 (≈ 35.5 µM) |  | MIC [2, 8]: 6.25 µg/mL (≈ 17.7 µM)
CCCCCC[C@@H](O)C/C=C\CCCCCCCC(=O)NCCN1CC[N+](CC(=O)[O-])=CC(C)(C)C1=O [4-ricinolamidoethyl-6,6-dimethyl-1-azonia-4-azacyclohept-7-en-5-one-1-acetate] |  | 400 (≈ 767 µM) | 50 (≈ 95.8 µM) | MIC (Escherichia coli NIHJ; [7]): 1600 µg/mL (≈ 3070 µM)
CCCCCCCCCCCCCCC(O)CNCCN1CC[N+](CC(=O)[O-])=CCCC1=O (stereo not drawn) [4-(2-hydroxyhexadecyl)aminoethyl-4-aza-1-azoniacyclooct-8-en-5-one-1-acetate] | 100 (≈ 214 µM) | 12.5 (≈ 26.7 µM) | 6.25 (≈ 13.4 µM) | 
CCCCCCCCc1ccc(OCCOC(C)COC(C)CN2CC[N+](CC(=O)[O-])=C(C)CC2=O)cc1 (stereo not drawn) |  | 50 (≈ 93.9 µM) | 50 (≈ 93.9 µM) | MIC (Escherichia coli NIHJ; [7]): 800 µg/mL (≈ 1500 µM)
4-behenoyloxypropyl-6-methyl-4aza-1-azoniacyclooct-8-en-5-one-1-acetate |  |  |  | MIC (Escherichia coli NIHJ; [3]): 800 µg/mL; MIC [1]: 200 µg/mL; MIC [2]: 25 µg/mL
CCCCCCCCCCCC(=O)NCCN1CC[N+](CC(=O)[O-])=CC(C)C1=O (stereo not drawn) [4-lauramidoethyl-6-methyl-1-azonia-4-azacyclohept-7-en-5-one-1-acetate] | 50 (≈ 122 µM) | 12.5 (≈ 30.5 µM) | 6.25 (≈ 15.3 µM) | 
CCCCCCCCCCCCCCCCCCCCC(O)CNCCNCCN1CCC[N+](CC(=O)[O-])=C(C)CC1=O (stereo not drawn) [1-(2-hydroxy)docosylaminoethylaminoethyl-4-methyl-1-aza-5-azoniacyclooct-4-en-2-one-5-acetate] | 50 (≈ 82.1 µM) | 25 (≈ 41.1 µM) | 6.25 (≈ 10.3 µM) | 
CCCCCCCCCCCCNCCN1CC[N+](CC(=O)[O-])=C(C)CC1=O [4-dodecylaminoethyl-7-methyl-1-azonia-4-azacyclohept-7-en-5-one-1-acetate] | 100 (≈ 253 µM) | 50 (≈ 126 µM) | 12.5 (≈ 31.6 µM) | 
CCCCCCCCCCC(O)CN1CC[N+](CC(=O)[O-])=CC(C)C1=O (stereo not drawn) [4-(2-hydroxy)dodecyl-6-methyl-1-azonia-4-azacyclohept-7-en-5-one-1-acetate] |  | 25 (≈ 67.8 µM) | 25 (≈ 67.8 µM) | MIC (Escherichia coli NIHJ; [7]): 800 µg/mL (≈ 2170 µM)
